Experiments:
[1] = system: hippocampal cultures from embryonic E18 rats; assay: Synaptogenesis in embryonic neuronal culture, quantitative immunostaining for Bassoon, Homer and MAP2; assay type: cell-based, rat
Excerpt: Example 4 illustrates that supplementation with inositol produces strong synaptogenic effects. Nerve cells communicate with each other in the brain through specialized junctions, called synapses. These junctions start to form in the human brain before birth and continue to develop at a rapid rate in the early postnatal period. Changes in this synaptogenic process impair the wiring of the brain and can cause developmental disorders. While effects related to caloric intake and selected nutrients on general brain function have been characterized, limited information exists on the specific roles of nutrients and natural nutrients in synapse formation. Accordingly, Example 4 illustrates the effects of inositol on hippocampal neurons and analyzed them by quantitative immunostaining for synaptic markers. Dissociated neuronal cultures were prepared from rat hippocampus and used in this culture system. It was observed that neurons undergo most rapid synaptogenesis at or by day 14 in vitro (14DIV). By day 21 in vitro (21 DIV), most neurons have become mature and synapse formation occurs at a slower rate. Accordingly, testing at day 14 or 21 in vitro therefore allows for distinguishing nutrient effects at different developmental stages. The neurons were grown in either in standard neurobasal NB medium which contains 40 uM inositol according to the manufacturer; or in 200 μM inositol using custom made medium from LifeTechnology that lacks inositol and that was supplemented with inositol to 200 μM; or without inositol using just the custom made medium from the same manufacturer that lacks inositol. The neurons and synapses were determined by staining Bassoon as a presynaptic active zone marker in green fluorescence, Homer as a postsynaptic marker in red, and MAP2 as a dendrite marker in blue. […] Quantitively, increasing inositol to higher concentrations further promoted its synaptogenic effects (see FIG. 4D) at pre-synaptic sites. The pre-synapses were measured by quantifying the number of bassoon in the puncta per 10 micron dendrite. […] The results were determined by quantitative immunostaining for the presynaptic marker (Bassoon) and the excitatory postsynaptic (Homer). (See. FIG. 4E). Indeed, as shown in FIGS. 4A-4C, hippocampal cultures from embryonic E18 rats grown at the indicated inositol concentrations were analyzed by quantitative immunostaining. FIG. 4A illustrates neurons grown under control conditions and stained for the presynaptic marker Bassoon (in green), the postsynaptic scaffold protein Homer (in red), and the dendritic marker MAP2 (in blue). FIG. 4B illustrates neurons grown with supplemented inositol at 200 μM from 4-14 days in vitro. FIG. 4C illustrates neurons grown without inositol. […] Additionally, FIG. 5 illustrates that treatment with inositol promotes the alignment of pre- and post-synaptic sites. […] Hippocampal cultures from embryonic rats were analyzed by quantitative immunostaining. […] In brief, the presynaptic markers were stained with […] and are shown in green and the post-synaptic markers were stained with homer in and are shown in red. The co-localization of pre- and post-synapse was determined the appearance of a yellow signal, which is produced when green color mixes with red. The quantification was analyzed by using Imag J software and co-localization was calculated by counting the numbers of yellow puncta per […] dendrite. Briefly, hippocampal cultures from embryonic rats were analyzed by quantitative immunostaining. […] The pre-synapse size was determined by the puncta size of bassoon; while the post-synapse size by that of homer. The histochemistry images were analyzed by using Image J software.

rat hippocampal neurons = assay: FM dye release on electrical field stimulation of neurons in microfluidic devices; assay type: cell-based; conditions: for releasing FM Dye as an indicator of neural transmitter release: 9DIV
Excerpt: Example 1 illustrates that inositol has a does dependent effect on neurotransmission. Due to the continuum of synapse development in vivo, it is difficult to quantitatively assess synapse development. However, in order to provide at time stamp for synapse development, Example 1 is directed to a PDL-coated bead in a culture medium designed to induce synaptic formation. […] By adding the PDL-coated beads to the axonal compartment of the microfluidic compartment, it allows for the visualization of presynaptic terminal development without the overwhelming signal from somata or dendrites. Indeed, this experimental set-up allows for the subjection of distinct compartments to nutrients of interest. The method used herein is described in the reference, Taylor, A. M. et al. “A microfluidic culture platform for CNS axonal injury regeneration and transport.” Nat Methods, 2005. 2(8): p. 599-605, which is incorporated by reference. Briefly, the microfluidic chip contains four chambers, two at the left side and two at the right connected by microgrooves in the center. The cortical and hippocampal dissociated neurons from embryonic rat (E18) and mouse (E17) were seeded in the left (somal) side of the chambers with a density of approximately 3×10^6 cells/ml, yielding approximately 3,000 cells in the somal side of the chamber. The PDL-coated nanobeads were added to the right side of the chamber. In each testing condition, the culture medium contains different nutrient. The immunohistochemistry analysis was performed in order to assess the impact on synaptic development provided by the nutrients. The cultures were fixed using 4% paraformaldehyde for 30 min at room temperature. The cultures then were washed twice with phosphate-buffered saline (PBS) for 5 min, and then permeabilized using PBS with 0.2% Triton X-100 for 30 min. To block nonspecific binding, PBS with 0.2% Triton X-100 and 10% goat serum was used. The primary antibodies were exposed to PBS with 0.2% Triton X-100 and 5% goat serum at 4° C. overnight, followed by brief rinsing of the cultures 3 times for 10 min. They were then incubated them with secondary antibody (conjugated with Alexa Fluor 488 or 568) in PBS for 1 h. The images were taken and quantified by using confocal microscopy. At embryonic Day 18, rat hippocampal neurons were plated on to microfluidic devices and inositol was added to both somal and axonal compartments from second day in vitro. Cultures were exposed with different concentrations of inositol at 200 μM, 600 μM, 1200 μM, or the control 40 μM, every 3 days by completely changing the media every three days. At 9 days in vitro (9DIV) the cultures were loaded with FM dye and electrical field stimulation of somal compartments was performed on each for about one minute.

[2] = system: Hippocampal cultures from embryonic rats; assay: Inositol plus DHA, presynaptic Bassoon puncta by quantitative immunostaining; assay type: cell-based, rat; conditions: compared to a DMSO control; FIG. 7
Experimental: Example 5 illustrates synergistic effect of inositol and DHA. FIG. 7 illustrates the effect of inositol in combination with DHA for presynaptic development. Hippocampal cultures from embryonic rats were analyzed by quantitative immunostaining. […] (See FIG. 7).

hippocampal neurons = assay: PDL-coated bead presynaptic formation, immunostaining for synapsin1, bassoon and β-tubulin III; assay type: cell-based, rat
Excerpt: Example 1 illustrates that inositol has a does dependent effect on neurotransmission. Due to the continuum of synapse development in vivo, it is difficult to quantitatively assess synapse development. However, in order to provide at time stamp for synapse development, Example 1 is directed to a PDL-coated bead in a culture medium designed to induce synaptic formation. […] By adding the PDL-coated beads to the axonal compartment of the microfluidic compartment, it allows for the visualization of presynaptic terminal development without the overwhelming signal from somata or dendrites. Indeed, this experimental set-up allows for the subjection of distinct compartments to nutrients of interest. The method used herein is described in the reference, Taylor, A. M. et al. “A microfluidic culture platform for CNS axonal injury regeneration and transport.” Nat Methods, 2005. 2(8): p. 599-605, which is incorporated by reference. Briefly, the microfluidic chip contains four chambers, two at the left side and two at the right connected by microgrooves in the center. […] The images were taken and quantified by using confocal microscopy. […] The measurements were quantified and subjected to statistical analysis by two-way ANOVA.

E18 hippocampal neurons = assay: Axon growth in microfluidic devices, immunohistochemistry with β-tubulin III; assay type: cell-based; conditions: addition of 600 μM inositol vs inositol free media
Excerpt: Example 3 illustrates that inositol exposure increases neuronal axon growth. Generally, an axon is a long, slender projection of a neuron that conducts electrical impulses away from the neuron's cell body. Myelinated axons are generally known as nerve fibers. Axons make contact with other neurons at synapses. Therefore, the healthy status of a neural axon is fundamentally important for proper brain function. The integrity and growth of axons can be measured by immunohistochemistry with β-tubulin III. Indeed, illustrated herein, the absence of inositol causes axon growth to stop and truncate prematurely; while supplementation of inositol provides healthy growth of neuronal axons. […] The axons of hippocampal neurons lost continuity and disintegrated. […] Taken together, inositol is essential for axon development and higher concentrations of inositol benefits the extension of axons.

Structure (SMILES): O[C@H]1[C@H](O)[C@@H](O)[C@H](O)[C@@H](O)[C@H]1O [inositol]
- pre-synaptic puncta density (number of bassoon puncta per 10 micron dendrite) ([1]; compared to control as well as DHA at 20 μM, FIG. 4D): increase the pre-synaptic puncta density in a statistically significant manner
- post-synaptic sites as measured by post-synaptic marker (Homer) density ([1]; higher concentrations of inositol, compared to the control and DHA at 20 μM, FIG. 4E): enhance post-synaptic sites
- overall health of neuron ([1]; increasing inositol): promotes the overall health of neuron
- density of pre- and post-synaptic specializations ([1]; increasing inositol from standard 40 μM to 200 μM): substantially elevates the density of pre- and post-synaptic specializations
- effect on synapse number relative to DHA ([1]; lowest tested concentrations of inositol): effects comparable to DHA
- size of presynaptic sites (Bassoon puncta size) ([1]; supplementation from 4-14 days in vitro, FIG. 6A): increase the size of presynaptic sites
- size of postsynaptic sites (Homer puncta size) ([1]; supplementation from 4-14 days in vitro, FIG. 6B): increase the size
- co-localization of pre-synaptic (Bassoon) with post synaptic (Homer) sites ([1]; treatment from 4-14 days in vitro, FIG. 5): increased the extent to which pre-synaptic sites (as measured by Bassoon staining) co-localized with post synaptic sites
- synapse number ([1]; treatment from 7-14 days in vitro): increased synapse number
- releasing FM Dye as an indicator of neural transmitter release (rat hippocampal neurons; 200 μM inositol vs control wells containing 40 μM inositol): significant increases in releasing FM Dye
- releasing FM Dye as an indicator of neural transmitter release (rat hippocampal neurons; 600 μM inositol vs control wells containing 40 μM inositol): significant increases in releasing FM Dye
- neural transmitter releasing, consistency of results (rat hippocampal neurons; 600 μM inositol wells): consistent and robust results with enhanced neural transmitter releasing
- concentration at which the highest effects on FM dye releasing were observed (rat hippocampal neurons; tested 200, 600, 1200 μM, dose dependent, statistically significant): 600 µM
- presynaptic Bassoon puncta [2]: increased the presynaptic Basson puncta
- synapsin 1 and bassoon clustering at the bead-axon terminals (hippocampal neurons; 10DIV hippocampal neurons, FIGS. 2A and 2B): increases synapsin 1 and bassoon clustering
- presynaptic assembly (hippocampal neurons; inositol at 600 μM vs 40 μM control, FIG. 2A): significantly increases the presynaptic assembly
- axon growth (E18 hippocampal neurons): restore and promote the healthy growth of axons

— patent publication US20180168215A1, “NUTRITIONAL COMPOSITIONS CONTAINING INOSITOL AND USES THEREOF” (Mead Johnson Nutrition Company, priority 2016, published 2018)
